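Following 48 hours of exposure in 96-well plates, responses at five concentrations were used to interpolate endpoints linearly. Here, GI50 denotes the concentration required for 50% inhibition of growth.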 The source made the active and inactive calls. No stated cut-off is given here; in the data, active = GI50 up to about 1.1 µM and inactive = higher.
Experiments:
Experiment in all cases: NCI-60 cell line screen, 48 h
786-0 = system: 786-0
A498 = system: A498
A549 = system: A549
ACHN = system: ACHN
BT-549 = system: BT-549
CAKI-1 = system: CAKI-1
CCRF-CEM = system: CCRF-CEM
COLO 205 = system: COLO 205
DU-145 = system: DU-145
EKVX = system: EKVX
HCC 2998 = system: HCC 2998
HCT-116 = system: HCT-116
HCT-15 = system: HCT-15
HL-60 = system: HL-60
HOP-62 = system: HOP-62
HOP-92 = system: HOP-92
HT-29 = system: HT-29
Hs-578T = system: Hs-578T
IGROV-1 = system: IGROV-1
K562 = system: K562
KM12 = system: KM12
LOX IMVI = system: LOX IMVI
M14 = system: M14
MCF7 = system: MCF7
MDA-MB-231 = system: MDA-MB-231
MDA-MB-435 = system: MDA-MB-435
MDA-N = system: MDA-N
MOLT-4 = system: MOLT-4
Malme-3M = system: Malme-3M
NCI-H226 = system: NCI-H226
NCI-H23 = system: NCI-H23
NCI-H460 = system: NCI-H460
NCI-H522 = system: NCI-H522
NCI/ADR-RES = system: NCI/ADR-RES
OVCAR-3 = system: OVCAR-3
OVCAR-4 = system: OVCAR-4
OVCAR-5 = system: OVCAR-5
OVCAR-8 = system: OVCAR-8
PC-3 = system: PC-3
RPMI-8226 = system: RPMI-8226
RXF 393 = system: RXF 393
SF-268 = system: SF-268
SF-295 = system: SF-295
SF-539 = system: SF-539
SK-MEL-28 = system: SK-MEL-28
SK-MEL-2 = system: SK-MEL-2
SK-MEL-5 = system: SK-MEL-5
SK-OV-3 = system: SK-OV-3
SN12C = system: SN12C
SNB-19 = system: SNB-19
SNB-75 = system: SNB-75
SR = system: SR
SW-620 = system: SW-620
T47D = system: T47D
TK-10 = system: TK-10
U-251 = system: U-251
UACC-257 = system: UACC-257
UACC-62 = system: UACC-62
UO-31 = system: UO-31

With `CC1=CC23C(COC(=O)C24CO4)C(C(=O)O)=CC3C1C` (stereo not drawn) the GI50 (786-0) was 5.09 µM (inactive), the GI50 (A498) was 23.3 µM (inactive) and the GI50 (A549) was 26.1 µM (inactive). The GI50 (ACHN) was 27.4 µM (inactive), the GI50 (BT-549) was 4.9 µM (inactive) and the GI50 (CAKI-1) was 9.79 µM (inactive). For the same molecule, the GI50 (CCRF-CEM) was 5.86 µM (inactive), the GI50 (COLO 205) was 24.7 µM (inactive) and the GI50 (DU-145) was 28.1 µM (inactive). For the same molecule, the GI50 (EKVX) was 40.4 µM (inactive), the GI50 (HCC 2998) was 15.4 µM (inactive) and the GI50 (HCT-116) was 16 µM (inactive). The GI50 (HCT-15) was 24.5 µM, the GI50 (HL-60) was 15 µM (inactive) and the GI50 (HOP-62) was 14.1 µM (inactive). The GI50 (HOP-92) was 8.24 µM (inactive), the GI50 (HT-29) was 16.2 µM (inactive) and the GI50 (Hs-578T) was 2.78 µM (inactive). For the same molecule, the GI50 (IGROV-1) was 24.1 µM (inactive), the GI50 (K562) was 4.85 µM (inactive) and the GI50 (KM12) was 6.73 µM (inactive). The GI50 (LOX IMVI) was 17 µM (inactive), the GI50 (M14) was 7.55 µM (inactive) and the GI50 (MCF7) was 35.6 µM (inactive). The GI50 (MDA-MB-231) was 10.9 µM (inactive), the GI50 (MDA-MB-435) was 23.1 µM (inactive) and the GI50 (MDA-N) was 24 µM (inactive). The GI50 (MOLT-4) was 17.4 µM (inactive), the GI50 (Malme-3M) was 6 µM (inactive) and the GI50 (NCI-H226) was 15.6 µM (inactive). For the same molecule, the GI50 (NCI-H23) was 27.1 µM (inactive), the GI50 (NCI-H460) was 18.2 µM (inactive) and the GI50 (NCI-H522) was 1.37 µM (inactive). For the same molecule, the GI50 (NCI/ADR-RES) was 15.3 µM (inactive), the GI50 (OVCAR-3) was 32.3 µM (inactive) and the GI50 (OVCAR-4) was 15.2 µM (inactive). The GI50 (OVCAR-5) was 24.4 µM (inactive), the GI50 (OVCAR-8) was 15.9 µM (inactive) and the GI50 (PC-3) was 11.9 µM (inactive). For the same molecule, the GI50 (RPMI-8226) was 2.37 µM (inactive), the GI50 (RXF 393) was 3.55 µM (inactive) and the GI50 (SF-268) was 4.93 µM (inactive). The GI50 (SF-295) was 24.3 µM (inactive), the GI50 (SF-539) was 15 µM (inactive) and the GI50 (SK-MEL-28) was 2.3 µM (inactive). The GI50 (SK-MEL-2) was 3.08 µM (inactive), the GI50 (SK-MEL-5) was 25.2 µM (inactive) and the GI50 (SK-OV-3) was 4.65 µM (inactive). For the same molecule, the GI50 (SN12C) was 3.32 µM (inactive), the GI50 (SNB-19) was 5.33 µM (inactive) and the GI50 (SNB-75) was 17.7 µM (inactive). The GI50 (SR) was 17.1 µM (inactive), the GI50 (SW-620) was 18.2 µM (inactive) and the GI50 (T47D) was 6.21 µM (inactive). For the same molecule, the GI50 (TK-10) was 21.2 µM (inactive), the GI50 (U-251) was 11.5 µM (inactive) and the GI50 (UACC-257) was 29 µM (inactive). The GI50 (UACC-62) was 12.8 µM (inactive) and the GI50 (UO-31) was 27.3 µM (inactive).

For `Cc1cc(C)c2c(O)cc(-c3cccc(F)c3)nc2n1`, the GI50 (786-0) was 0.177 µM (active), the GI50 (A498) was 0.274 µM (active) and the GI50 (A549) was 0.0847 µM (active). The GI50 (ACHN) was 0.0953 µM (active), the GI50 (BT-549) was 0.175 µM (active) and the GI50 (CAKI-1) was 0.0536 µM (active). The GI50 (CCRF-CEM) was 0.172 µM (active), the GI50 (COLO 205) was 0.043 µM (active) and the GI50 (DU-145) was 0.215 µM (active). The GI50 (EKVX) was 0.45 µM (active), the GI50 (HCC 2998) was 0.301 µM (active) and the GI50 (HCT-116) was < 0.0186 µM (active). The GI50 (HCT-15) was 0.0495 µM, the GI50 (HL-60) was 0.0312 µM (active) and the GI50 (HOP-62) was 0.158 µM (active). The GI50 (HOP-92) was < 0.01 µM (active), the GI50 (HT-29) was 0.0405 µM (active) and the GI50 (Hs-578T) was 0.0614 µM (active). For the same molecule, the GI50 (IGROV-1) was 0.0766 µM (active), the GI50 (K562) was < 0.0175 µM (active) and the GI50 (KM12) was 0.0351 µM (active). The GI50 (LOX IMVI) was 0.191 µM (active), the GI50 (M14) was 0.0521 µM (active) and the GI50 (MCF7) was 0.0308 µM (active). The GI50 (MDA-MB-231) was 0.42 µM (active), the GI50 (MDA-MB-435) was < 0.01 µM (active) and the GI50 (MDA-N) was 0.0116 µM (active). The GI50 (MOLT-4) was 0.22 µM (active), the GI50 (Malme-3M) was 0.0614 µM (active) and the GI50 (NCI-H226) was 0.168 µM (active). For the same molecule, the GI50 (NCI-H23) was 0.294 µM (active), the GI50 (NCI-H460) was 0.0738 µM (active) and the GI50 (NCI-H522) was 0.03 µM (active). For the same molecule, the GI50 (NCI/ADR-RES) was 0.0422 µM (active), the GI50 (OVCAR-3) was 0.025 µM (active) and the GI50 (OVCAR-4) was 4.08 µM (inactive). The GI50 (OVCAR-5) was 0.399 µM (active), the GI50 (OVCAR-8) was 0.261 µM (active) and the GI50 (PC-3) was 0.0718 µM (active). The GI50 (RPMI-8226) was 0.139 µM (active), the GI50 (RXF 393) was 0.163 µM (active) and the GI50 (SF-268) was 1.44 µM (inactive). The GI50 (SF-295) was 0.0348 µM (active), the GI50 (SF-539) was 0.0944 µM (active) and the GI50 (SK-MEL-28) was 0.115 µM (active). The GI50 (SK-MEL-2) was 0.098 µM (active), the GI50 (SK-MEL-5) was 0.0422 µM (active) and the GI50 (SK-OV-3) was 0.158 µM (active). The GI50 (SN12C) was 0.299 µM (active), the GI50 (SNB-19) was 0.136 µM (active) and the GI50 (SNB-75) was 0.0692 µM (active). For the same molecule, the GI50 (SR) was 0.0169 µM (active), the GI50 (SW-620) was < 0.0194 µM (active) and the GI50 (T47D) was 0.232 µM (active). The GI50 (TK-10) was 23.7 µM (inactive), the GI50 (U-251) was 0.0724 µM (active) and the GI50 (UACC-257) was 10.4 µM (inactive). The GI50 (UACC-62) was < 0.0284 µM (active) and the GI50 (UO-31) was 12.9 µM (inactive).
